Experimental data taken from article PMC2773450 (Analytical biochemistry, 2008).

Target: T1, O^6-alkylguanine—DNA alkyltransferase (AGT) (Homo sapiens, UniProt P16455)
T1 sequence (P16455 1-207): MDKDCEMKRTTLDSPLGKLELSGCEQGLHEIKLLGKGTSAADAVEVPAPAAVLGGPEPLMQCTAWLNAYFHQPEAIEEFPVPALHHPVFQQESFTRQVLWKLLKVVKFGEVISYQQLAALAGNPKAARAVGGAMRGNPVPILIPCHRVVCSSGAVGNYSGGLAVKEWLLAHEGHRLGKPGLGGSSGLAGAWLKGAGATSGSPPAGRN

Substance: O^6-(thiophenemethyl)guanine [TMG]
- IC50: 0.023 µM
